Assay results as given in US20080103127A1, “METHODS FOR TREATING DISRUPTIVE BEHAVIOR DISORDERS” (priority 2006, published 2008).
Marks after values point to notes of the source that are not given here.

Legend:
submissive rats = assay: Reduction of Submissive Behavior Model (RSBM) of depression, dominant-submissive rat food competition test; assay type: in vivo, Sprague-Dawley rats
Description: (§1) In this study, the effects of COMPOUND #7 on dominant or submissive behavior in pairs of rats competing for food are examined. It has been shown that anti-manic drugs, including anticonvulsants, decrease dominance and antidepressant drugs reduce submissiveness. This model uses dominant behavior as a model of mania and submissive behavior as a model of depression. The dominance and submissiveness is defined in a competition test and measured as the relative success of two food-restricted rats to gain access to a feeder. Rats are randomly paired and placed in an apparatus allowing them to compete for a food reward. The dominant-submissive relationship develops over a 2-week period. The submissive or dominant animals in pairs selected after 2 weeks of training were treated orally […] (b.i.d.) with COMPOUND #7 at 3 or 30 mg/kg for 5 weeks. The partner of the drug-treated animal was treated with vehicle.
(§2) The objective of this study was to determine if COMPOUND #7 is active in the Reduction of Submissive Behavior Model (RSBM) of depression and the Reduction of Dominant Behavior Model (RDBM) of mania. Measurements were made at two doses (3 and 30 mg/kg) after oral twice a day (b.i.d.) administration. The effect of the drug in the RSBM was compared to the effect of fluoxetine (10 mg/kg) and vehicle (0.5% methylcellulose). The effect of the drug in the RDBM was compared with the effect of lithium (100 mg/kg) and vehicle (0.5% methylcellulose). The endpoints measured were the development of a significant reduction of submissive or dominant behavior and its time of onset.
(§3) The DSR developed by two rats competing for food uses the apparatus in FIG. 1. The methodology and equipment are described in several publications. (See, Malatynska E, Goldenberg R, Shuck L, Haque A, Zamecki P, Crites G, Schindler N, Knapp R J. Reduction of submissive behavior in rats: a test for antidepressant drug activity. Pharmacology 2002; 64:8; Malatynska E, Rapp R, Crites G. Dominant behavior measured in a competition test as a model of mania. In: International Behavioral Neuroscience Society Meeting, ed. IBNSCapri, Italy, 2002, p 26.; Bonnet U. Moclobemide: therapeutic use and clinical studies. CNS Drug Rev 2003; 9:97; Danysz W, Plaznik A, Kostowski W, Malatynska E, Jarbe T U, Hiltunen A J, Archer T. Comparison of desipramine, amitriptyline, zimeldine and alaproclate in six animal models used to investigate antidepressant drugs. Pharmacol Toxicol 1988; 62:42; Knapp R J, Goldenberg R, Shuck C, Cecil A, Watkins J, Miller C, Crites G, Malatynska E. Antidepressant activity of memory-enhancing drugs in the reduction of submissive behavior model. Eur J Pharmacol 2002; 440:27; Kostowski W, Malatynska E, Plaznik A, Dyr W, Danysz W. Comparative studies on antidepressant action of alprazolam in different animal models. Pol J Pharmacol Pharm 1986; 38, 471; Malatynska E, De Leon I, Allen D, Yamamura Hi. Effects of amitriptyline on GABA-stimulated ^36Cl^− uptake in relation to a behavioral model of depression. Brain Res Bull 1995; 37:53; Malatynska E, Kostowski W. The effect of antidepressant drugs on dominance behavior in rats competing for food. Pol J Pharmacol Pharm 1984; 36:531; Malatynska E, Kostowski W. Desipramine antagonizes clonidine-induced suppression of dominance in rats: possible involvement of amygdaloid nuclei. Pol J Pharmacol Pharm 1988; 40:357).
In the experiments described in this report Sprague-Dawley rats weighing 160 to 180 g were used. Testing for the development of a DSR between paired rats begins with the random assignment of rats into pairs. Rats from pairs are housed separately between test sessions with other animals in groups of four. The animals are food-deprived overnight with free access to water.
The test involves placing each member of a pair in opposite chambers of the testing apparatus. These chambers are connected through a narrow tunnel with a small container of sweetened milk at the center. […]

[1] = system: isolation-induced aggressive behavior in pairs of mice; assay: Isolation-induced aggression model in pairs of mice; assay type: in vivo, CrI:CD-1(ICR)BR albino mice
Protocol: The effects of test compound on the aggressive behavior of CrI:CD-1(ICR)BR albino mice were evaluated using the paradigm of isolation-induced aggression.
Male CrI:CD-1(ICR)BR albino mice, fasted overnight, were individually housed for 5 weeks in plastic cages on wood-chip bedding. Subsequently, they were paired for 1 minute daily for several days by placing one individually housed mouse (intruder) into the resident cage of another individually housed mouse (resident). The 1-minute pairing of intruder and resident mouse elicits aggressive behavior. Pairs of mice showing consistent aggressive behavior when paired for 1 minute, during several days were selected as subjects for drug testing.
Test compound (10 to 40 mg/kg p.o.) or the vehicle (methocel; aqueous 0.5%, w/v, hydroxypropyl methylcellulose solution) was administered (10 mL/kg) to the resident and intruder mouse. One and 4 hours after dosing, the mice were paired and the onset of fighting was recorded. […] The duration of fighting during a 1-minute test period was recorded. Mice were re-used in this procedure after several days to a week to allow metabolism and elimination of test compounds. The mice weighed 32 to 49 g at the time of testing and were fasted overnight before dosing. Mice were euthanized with CO2 if they were sick or injured.
Results were expressed as the median onset of fighting and median duration of fighting in vehicle and drug-treated groups. The statistical significance of an increase in the median onset or a reduction in the median duration of fighting in pairs of mice given test compound or its vehicle 1 and 4 hours after administration was determined using the nonparametric Wilcoxon test (p<0.05, 1-tailed).

dominant rats = assay: Reduction of Dominant Behavior Model (RDBM) of mania, dominant-submissive rat food competition test; assay type: in vivo, Sprague-Dawley rats
Description: as §1, §2, §3
In the experiments described in this report Sprague-Dawley rats weighing 160 to 180 g were used. […]

[2] = 10 mg/kg p.o., 1 hour after administration
[3] = 10 mg/kg p.o., 4 hours after administration
[4] = 20 mg/kg p.o., 1 hour after administration
[5] = 20 mg/kg p.o., 4 hours after administration
[6] = 30 mg/kg p.o., 1 hour after administration
[7] = 30 mg/kg p.o., 4 hours after administration
[8] = 40 mg/kg p.o., 1 hour after administration
[9] = 40 mg/kg p.o., 4 hours after administration

Compound: NC(=O)OC[C@@H](O)c1ccccc1Cl [COMPOUND #7, carisbamate]
- effect on submissive rat behavior (submissive rats; 3 mg/kg b.i.d. p.o., 5 weeks, submissive rat treated, partner vehicle): did not have any effect
- onset of increased competitiveness of submissive rats (time of treatment) (submissive rats; 30 mg/kg b.i.d. p.o.): 1 week
- efficacy in submissive rats compared with fluoxetine (submissive rats; 30 mg/kg b.i.d. p.o. vs fluoxetine 10 mg/kg i.p. once a day): same efficacy as fluoxetine
- competitiveness of submissive rat compared to vehicle-treated submissive rats (submissive rats; 30 mg/kg b.i.d. p.o., 5 weeks, submissive rat treated): significantly increased competitiveness
- Median Duration of isolation-induced fighting [1, 2]: 28 s
- Median Onset of isolation-induced fighting [1, 2]: 5 s
- Median Duration of isolation-induced fighting [1, 3]: 6 s
- Median Onset of isolation-induced fighting [1, 3]: 4 s
- Median Duration of isolation-induced fighting [1, 4]: 20 s
- Median Onset of isolation-induced fighting [1, 4]: 11 s
- Median Duration of isolation-induced fighting [1, 5]: 26 s
- onset of initiation of fighting compared to vehicle-treated group [1, 5]: significantly shortened
- Median Duration of isolation-induced fighting [1, 6]: 18 s
- Median Onset of isolation-induced fighting [1, 6]: 14 s
- Median Duration of isolation-induced fighting [1, 7]: 9.5 s
- Median Onset of isolation-induced fighting [1, 7]: 4 s
- Median Duration of isolation-induced fighting [1, 8]: 0.5^b sec
- Median Onset of isolation-induced fighting [1, 8]: 40 s
- isolation-induced aggressive behavior in pairs of mice ([1]; 40 mg/kg p.o., 1 hour after administration, p<0.05): statistically significantly inhibited
- Median Duration of isolation-induced fighting [1, 9]: 20 s
- Median Onset of isolation-induced fighting [1, 9]: 17 s
- median duration of fighting compared to vehicle-treated groups ([1]; any group (10 to 40 mg/kg p.o.), 4 hours after administration): not affected
- onset of significant decrease of dominant rat performance (time of treatment) (dominant rats; 3 mg/kg b.i.d. p.o.): 3 weeks
- extent and onset of the effect on dominant rats compared with lithium (dominant rats; 3 mg/kg b.i.d. p.o. vs lithium 100 mg/kg i.p.): not significantly different
- performance of dominant rats (dominant rats; 3 mg/kg b.i.d. p.o., 5 weeks, dominant rat treated, partner vehicle): decreased the performance
- onset of increased competitiveness of dominant rats (time of treatment) (dominant rats; 30 mg/kg b.i.d. p.o.): 2 weeks
- competitiveness of dominant rats compared to water treated dominant rats (dominant rats; 30 mg/kg b.i.d. p.o., 5 weeks, dominant rat treated): significantly increased the competitiveness
